Molecules are shown by their SMILES.

The assay relates to Tetranychus urticae. Put plainly: Acaricidal activity against Tetranychus urticae (two-spotted spider mite) in compound treated kidney bean leaf assessed as mortality of egg at 24 degC measured after 1 week. The class given is functional. Particulars: 168 h.
Take `Oc1ccc(C2COC(c3c(F)cccc3F)=N2)cc1` (stereo not given): the median lethal concentration (LC50) – broadly, the concentration that kills 50% of the test population – is 182 µM.

Take `CCCCCCCCc1ccc(C2COC(c3c(F)cccc3F)=N2)c(F)c1` (stereo not given): the LC50 is 0.00129 µM. With `CN(C)c1ccc(C2COC(c3c(F)cccc3F)=N2)cc1` (stereo not given) the figure was 166 µM. Next, `CC(C)Cc1ccc(C2COC(c3c(F)cccc3F)=N2)c(Cl)c1` (stereo not given): 0.00145 µM; `Cc1ccccc1C1COC(c2c(F)cccc2F)=N1` (stereo not given): 182 µM. Next, `Fc1ccccc1C1COC(c2c(F)cccc2F)=N1` (stereo not given): 18.2 µM. Consider `CCc1cccc(C2COC(c3c(F)cccc3F)=N2)c1` (stereo not given), for which the LC50 is 174 µM. For the molecule `CCOc1ccccc1C1COC(c2c(F)cccc2F)=N1` (stereo not given), the LC50 is 166 µM. With `CCCCCCc1ccc(C2COC(c3c(F)cccc3F)=N2)cc1` (stereo not given) the figure was 0.00145 µM; with `CCCOc1cc(C(C)C)ccc1C1COC(c2c(F)cccc2F)=N1` (stereo not given), 0.00138 µM; with `CCCCCc1ccc(C2COC(c3c(F)cccc3F)=N2)c(OCCC)c1` (stereo not given), 0.0129 µM. Next, `Fc1cccc(F)c1C1=NC(c2ccc(OC(F)(F)F)cc2)CO1` (stereo not given): 0.0144 µM. In the case of `COc1cccc(C2COC(c3c(F)cccc3F)=N2)c1` (stereo not given), the LC50 was 17.4 µM. In the case of `CCCCCCc1ccc(C2COC(c3c(F)cccc3F)=N2)c(F)c1` (stereo not given), the LC50 was 0.00138 µM. In the case of `CCCCCCCCCCCCCCCc1ccc(C2COC(c3c(F)cccc3F)=N2)cc1` (stereo not given), the LC50 is 0.0107 µM. Regarding `CCCCCCCCCCc1ccc(C2COC(c3c(F)cccc3F)=N2)c(F)c1` (stereo not given), the LC50 was 0.012 µM. With `Cc1cccc(C2COC(c3c(F)cccc3F)=N2)c1` (stereo not given) the figure was 182 µM; with `CCOc1cccc(C2COC(c3c(F)cccc3F)=N2)c1` (stereo not given), 16.6 µM. As to `CS(=O)(=O)c1ccc(C2COC(c3c(F)cccc3F)=N2)cc1` (stereo not given), the LC50 is 1480 µM.

For the molecule `CCOc1cc(C(C)(C)C)ccc1C1COC(c2c(F)cccc2F)=N1` (stereo not given) [ETOXAZOLE], the LC50 was 0.0138 µM. In the case of `CCCCCCCCCCCCCOc1ccc(C2COC(c3c(F)cccc3F)=N2)cc1` (stereo not given), the LC50 is 0.011 µM. Take `CCCCOc1cc(F)ccc1C1COC(c2c(F)cccc2F)=N1` (stereo not given): the LC50 is 0.00145 µM.

As to `CCCCCc1ccc(C2COC(c3c(F)cccc3F)=N2)c(OCC)c1` (stereo not given), the LC50 was 0.00135 µM. With `CC(C)(C)c1ccc(C2COC(c3c(F)cccc3F)=N2)cc1` (stereo not given) the figure was 0.00159 µM; with `CC(C)c1ccc(C2COC(c3c(F)cccc3F)=N2)cc1` (stereo not given), 0.0166 µM. On to `CCCCCCCc1ccc(C2COC(c3c(F)cccc3F)=N2)c(F)c1` (stereo not given), for which the LC50 is 0.00132 µM. For `Fc1ccc(C2COC(c3c(F)cccc3F)=N2)cc1F` (stereo not given), the LC50 was 1.7 µM. With `CCCCCCCCOc1ccc(C2COC(c3c(F)cccc3F)=N2)cc1` (stereo not given) the figure was 0.00129 µM; with `CCCCCCOc1cc(C(C)(C)C)ccc1C1COC(c2c(F)cccc2F)=N1` (stereo not given), 1.2 µM; with `CCCCc1ccc(C2COC(c3c(F)cccc3F)=N2)cc1` (stereo not given), 0.00159 µM.

Consider `CCCCCCc1ccc(C2COC(c3c(F)cccc3F)=N2)cc1F` (stereo not given), for which the LC50 was 1.38 µM.

With `COc1cc(Cl)ccc1C1COC(c2c(F)cccc2F)=N1` (stereo not given), the LC50 was 1.55 µM. As for `CCc1ccc(C2COC(c3c(F)cccc3F)=N2)c(F)c1` (stereo not given), the LC50 was 1.62 µM.

`CCOc1cc(Cl)ccc1C1COC(c2c(F)cccc2F)=N1` (stereo not given): the LC50 was 1.48 µM. In the case of `CCc1ccccc1C1COC(c2c(F)cccc2F)=N1` (stereo not given), the median lethal concentration (LC50) was 17.4 µM. Next, `CCCCCCCCCCCCc1ccc(C2COC(c3c(F)cccc3F)=N2)c(Cl)c1` (stereo not given): 1.07 µM; `Fc1cccc(F)c1C1=NC(c2ccc(Cl)cc2)CO1` (stereo not given): 0.017 µM; `CCCCCCCCCCOc1ccc(C2COC(c3c(F)cccc3F)=N2)cc1` (stereo not given): 0.0012 µM. Next, `COc1ccc(C2COC(c3c(F)cccc3F)=N2)cc1` (stereo not given): 17.4 µM. Turning to `CCOc1cc(C(C)C)ccc1C1COC(c2c(F)cccc2F)=N1` (stereo not given), the LC50 was 0.145 µM. With `CCCCCCCCCCCCc1ccc(C2COC(c3c(F)cccc3F)=N2)c(F)c1` (stereo not given), the LC50 is 0.112 µM. As for `Cc1ccc(C2COC(c3c(F)cccc3F)=N2)c(C)c1` (stereo not given), the 50% lethal concentration (LC50) is 174 µM. For the molecule `Fc1cccc(F)c1C1=NC(c2ccc(Cl)c(Cl)c2)CO1` (stereo not given), the median lethal concentration (LC50) was 1.51 µM. With `Fc1ccc(C2COC(c3c(F)cccc3F)=N2)cc1Cl` (stereo not given) the figure was 1.62 µM; with `Fc1cccc(F)c1C1=NC(c2ccccc2)CO1` (stereo not given), 19.5 µM; with `CCc1ccc(C2COC(c3c(F)cccc3F)=N2)c(Cl)c1` (stereo not given), 0.0155 µM. With `CCCCCCCCCSc1ccc(C2COC(c3c(F)cccc3F)=N2)cc1` (stereo not given) the figure was 0.12 µM.

Consider `CCCCCCCCCCCCc1ccc(C2COC(c3c(F)cccc3F)=N2)cc1` (stereo not given), for which the 50% lethal concentration (LC50) is 0.00118 µM.

With `Fc1cc(Cl)ccc1C1COC(c2c(F)cccc2F)=N1` (stereo not given), the LC50 is 0.00162 µM. Next, `CCCCCCCCc1ccc(C2COC(c3c(F)cccc3F)=N2)cc1` (stereo not given): 0.00135 µM. With `Fc1ccc(C2COC(c3c(F)cccc3F)=N2)c(Cl)c1` (stereo not given) the figure was 1.62 µM; with `Fc1cccc(F)c1C1=NC(c2ccc(Br)cc2)CO1` (stereo not given), 0.0148 µM. `CCCCCCCCc1ccc(C2COC(c3c(F)cccc3F)=N2)c(C)c1` (stereo not given): the LC50 is 0.00129 µM. Next, `CCCCCCCCCCc1ccc(C2COC(c3c(F)cccc3F)=N2)c(Cl)c1` (stereo not given): 1.15 µM; `CCCCCCCCCCc1ccc(C2COC(c3c(F)cccc3F)=N2)cc1` (stereo not given): 0.00126 µM; `Cc1ccc(C2COC(c3c(F)cccc3F)=N2)cc1C` (stereo not given): 17.4 µM. Take `C[Si](C)(C)c1ccc(C2COC(c3c(F)cccc3F)=N2)cc1` (stereo not given): the LC50 was 0.00151 µM. For the molecule `Fc1cccc(F)c1C1=NC(c2ccc(C(F)(F)F)cc2)CO1` (stereo not given), the LC50 is 0.151 µM. Regarding `Fc1cc(C2COC(c3c(F)cccc3F)=N2)ccc1Cl` (stereo not given), the median lethal concentration (LC50) was 0.162 µM. Turning to `COc1ccccc1C1COC(c2c(F)cccc2F)=N1` (stereo not given), the LC50 was 174 µM. With `CCCOc1cc(C(C)(C)C)ccc1C1COC(c2c(F)cccc2F)=N1` (stereo not given) the figure was 0.0135 µM; with `Fc1cccc(F)c1C1=NC(c2ccccc2Cl)CO1` (stereo not given), 1.7 µM; with `CCc1ccc(C2COC(c3c(F)cccc3F)=N2)cc1` (stereo not given), 0.0174 µM. With `CCOc1ccc(C2COC(c3c(F)cccc3F)=N2)cc1` (stereo not given) the figure was 0.0166 µM; with `COc1cc(C(C)(C)C)ccc1C1COC(c2c(F)cccc2F)=N1` (stereo not given), 0.0144 µM; with `CC(C)Oc1ccc(C2COC(c3c(F)cccc3F)=N2)cc1` (stereo not given), 0.0158 µM.

With `C[S+]([O-])c1ccc(C2COC(c3c(F)cccc3F)=N2)cc1` (stereo not given), the LC50 was 155 µM. `CSc1ccc(C2COC(c3c(F)cccc3F)=N2)cc1` (stereo not given): the 50% lethal concentration (LC50) was 1.62 µM.

`CCCCCCCCCc1ccc(C2COC(c3c(F)cccc3F)=N2)c(OC)c1` (stereo not given): the LC50 was 0.012 µM. Regarding `CCCCCCCCc1ccc(C2COC(c3c(F)cccc3F)=N2)c(OC)c1` (stereo not given), the LC50 was 0.126 µM. With `Fc1ccc(C2COC(c3c(F)cccc3F)=N2)cc1` (stereo not given) the figure was 1.82 µM; with `CCCCCCCCCCc1ccc(C2COC(c3c(F)cccc3F)=N2)c(OC)c1` (stereo not given), 0.117 µM; with `CC(C)Sc1ccc(C2COC(c3c(F)cccc3F)=N2)cc1` (stereo not given), 1.51 µM. With `CCCCCCCCc1ccc(C2COC(c3c(F)cccc3F)=N2)c(Cl)c1` (stereo not given), the LC50 is 0.00123 µM. On to `Fc1ccc(C2COC(c3c(F)cccc3F)=N2)c(F)c1` (stereo not given), for which the LC50 was 0.17 µM. Next, `Cc1cc(Cl)ccc1C1COC(c2c(F)cccc2F)=N1` (stereo not given): 1.62 µM; `CCCCOc1ccc(C2COC(c3c(F)cccc3F)=N2)cc1` (stereo not given): 0.00151 µM; `CCOc1cc(F)ccc1C1COC(c2c(F)cccc2F)=N1` (stereo not given): 0.0155 µM.

For `CCCCOc1cc(C(C)(C)C)ccc1C1COC(c2c(F)cccc2F)=N1` (stereo not given), the LC50 was 0.129 µM.

Take `CC(C)Cc1ccc(C2COC(c3c(F)cccc3F)=N2)cc1` (stereo not given): the LC50 was 0.00159 µM. With `CCOc1cc(Br)ccc1C1COC(c2c(F)cccc2F)=N1` (stereo not given) the figure was 1.32 µM.

With `Fc1cccc(C2COC(c3c(F)cccc3F)=N2)c1` (stereo not given), the LC50 was 18.2 µM. With `COc1cc(F)ccc1C1COC(c2c(F)cccc2F)=N1` (stereo not given) the figure was 1.62 µM; with `Fc1cccc(F)c1C1=NC(c2ccc(OCC(F)(F)F)cc2)CO1` (stereo not given), 0.00141 µM; with `Fc1cccc(F)c1C1=NC(c2ccc(Cl)cc2Cl)CO1` (stereo not given), 0.151 µM.

On to `CCCCCCc1ccc(C2COC(c3c(F)cccc3F)=N2)c(Cl)c1` (stereo not given), for which the LC50 was 0.00132 µM. Next, `CCCCCCc1ccc(C2COC(c3c(F)cccc3F)=N2)cc1Cl` (stereo not given): 1.32 µM; `CCCCCCCCCCCCCCOc1ccc(C2COC(c3c(F)cccc3F)=N2)cc1` (stereo not given): 0.107 µM; `Cc1ccc(C2COC(c3c(F)cccc3F)=N2)cc1` (stereo not given): 1.82 µM. As for `Fc1cccc(F)c1C1=NC(c2cccc(Cl)c2)CO1` (stereo not given), the LC50 is 17 µM.
